Data: US10000469B2, “Heat shock protein 70 (hsp-70) receptor ligands” (Duke University, priority 2014, dated 2018)

Assays:
[1] = tested on: PC12 cell line expressing httQ74-GFP; assay: Aggregation assay, cell culture model of Huntington's disease; format: cell-based, rat; conditions: compared to untreated controls
Experimental: Aggregation Assay: The PC12 rat neuronal cell line, which expresses Huntingtin exon 1 containing 74 glutamine repeats is fused to GFP and under the control of a doxycycline promoter was used [Wyttenbach et al. (2001). Polyglutamine expansions cause decreased CRE-mediated transcription and early gene expression changes prior to cell death in an inducible cell model of Huntington's disease. Human molecular genetics 10, 1829-1845]. Cells were treated with HS-72 for 18 hours prior to a doxycycline addition for 48 hours. The soluble and pellet fraction were then separated by centrifugation at 14,000 rpm for 15 minutes and both fractions were assayed for httQ-GFP by solubilizing with SDS followed by western blotting with antibodies against GFP.

[2] = target: T1, Hsp70 (Sus scrofa, UniProt P34930); assay: Endogenous Hsp70 elution from ATP resin, pig bladder lysate; format: binding; conditions: few non-specific eluted proteins
T1 construct: from tissue; host or cells: pig bladder
T1 sequence (P34930 whole entry): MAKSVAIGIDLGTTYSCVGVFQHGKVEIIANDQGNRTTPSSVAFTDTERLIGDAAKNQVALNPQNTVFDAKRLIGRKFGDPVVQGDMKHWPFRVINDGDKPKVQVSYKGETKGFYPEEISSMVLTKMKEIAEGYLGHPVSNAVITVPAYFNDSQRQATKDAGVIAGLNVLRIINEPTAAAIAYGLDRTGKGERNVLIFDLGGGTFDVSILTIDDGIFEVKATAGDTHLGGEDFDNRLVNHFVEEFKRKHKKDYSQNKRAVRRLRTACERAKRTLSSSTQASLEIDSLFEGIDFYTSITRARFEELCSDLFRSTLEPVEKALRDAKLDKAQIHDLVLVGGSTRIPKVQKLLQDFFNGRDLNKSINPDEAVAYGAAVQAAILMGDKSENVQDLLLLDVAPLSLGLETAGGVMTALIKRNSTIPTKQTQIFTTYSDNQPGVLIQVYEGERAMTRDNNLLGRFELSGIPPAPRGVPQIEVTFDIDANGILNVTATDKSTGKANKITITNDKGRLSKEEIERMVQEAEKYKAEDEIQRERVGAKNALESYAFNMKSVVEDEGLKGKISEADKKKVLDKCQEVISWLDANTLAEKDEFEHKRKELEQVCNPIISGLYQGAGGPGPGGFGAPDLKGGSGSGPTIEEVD
Experimental: Endogenous Hsp70 elution: Pig bladder tissue was used for eluting endogenous Hsp70 from the γ-phosphate ATP sepharose resin. Tissue was homogenized in liquid nitrogen and stored at −80° C. until further use. Tissue mass was measured (g) and then 2.5× volume (mL) of tissue lysis buffer (50 mM HEPES, 60 mM MgCl2, 60 mM KCl, 1 mM DTT) was added and homogenized on a laboratory blender. A total of 25 grams of homogenized tissue was typically used for each experiment. Subsequent to lysis, the tissue was centrifuged at 35,000 RPM in a Beckman Type 45 Ti rotor (Brea, Calif.) for 45 minutes at 4° C., and then filtered over silica wool. The filtered supernatant was then added to the γ-phosphate ATP sepharose resin and washed as previously described in the FLECS screen. Compounds were used to elute Hsp70 and the elutions were then separated by SDS-PAGE and analyzed by Western blot or the gels were visualized by silver stain.

[3] = HS-72 in vivo MTD; conditions: wild-type mice, IP biweekly for 35 days, up to 30 mg/kg
Experimental: HS-72 in vivo MTD and blood workup: The 5 cohorts consisted of 3 mice each given HS-72 BiW and administered IP in DMSO at 1, 5, 10, 20 and 30 mpk using female FVBs aged to 10 weeks. Body Mass was measured weekly and the mice were monitored for signs of toxicity as per MP1U standard protocol. For blood analysis, 4 mice were injected IP with HS-72 on day 1 and 4, with blood drawn on day 5. 4 mice receiving no treatment were used as controls.

[4] = target: Hsp70i (Homo sapiens, UniProt P0DMV8); assay: Thermofluor assay, purified Hsp70i; format: binding; set-up: Full length Hsp70 (black arrow) and tryptic fragments (blue arrows); His tag (cleaved yes); made in house; conditions: for decrease of ATP bound Hsp70i Tm: in presence of ATP; for decrease of the Tm of Hsp70i: no nucleotide
Hsp70i, sequence (P0DMV8 whole entry, the tested form may be a part): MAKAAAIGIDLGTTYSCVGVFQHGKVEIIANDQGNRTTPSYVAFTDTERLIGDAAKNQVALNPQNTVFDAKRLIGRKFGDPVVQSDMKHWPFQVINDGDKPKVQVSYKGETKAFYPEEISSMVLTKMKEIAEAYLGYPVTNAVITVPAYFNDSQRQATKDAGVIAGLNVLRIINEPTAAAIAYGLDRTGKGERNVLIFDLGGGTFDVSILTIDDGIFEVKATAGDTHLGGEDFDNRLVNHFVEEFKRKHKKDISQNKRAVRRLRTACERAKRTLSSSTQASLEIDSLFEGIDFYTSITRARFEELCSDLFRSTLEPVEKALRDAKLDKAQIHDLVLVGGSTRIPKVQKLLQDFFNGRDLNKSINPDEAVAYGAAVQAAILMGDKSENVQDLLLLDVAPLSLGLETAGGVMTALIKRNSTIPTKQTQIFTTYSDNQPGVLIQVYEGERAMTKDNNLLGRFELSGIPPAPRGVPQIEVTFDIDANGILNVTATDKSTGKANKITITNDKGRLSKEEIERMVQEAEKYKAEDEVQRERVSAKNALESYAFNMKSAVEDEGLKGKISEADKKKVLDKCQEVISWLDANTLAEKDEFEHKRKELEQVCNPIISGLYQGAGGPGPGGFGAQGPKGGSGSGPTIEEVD
Experimental: Protein Purification: Plasmids were provided for human HSPA1A, HSPA8, and HSPA1A C306D. Plasmids were transformed in Rosetta competent cells and single colonies were picked from streaked LB/ampicillin/chloramphenicol plates. Cultures were grown at 37° C. for 4-6 hours, were cooled to 15° C. and expression was induced overnight with 200 uM isopropyl 1-thio-β-D-galactopyranoside. Cells were pelleted and resuspended in Ni-lysis buffer (50 mM Na2HPO4, 300 mM NaCl, 10 mM Imidazole, 0.05% Tween-20) supplemented with Complete Mini protease inhibitor tablets (Roche, Mannheim, Germany) and […], and then sonicated. The cells were again pelleted and the supernatant was incubated with complete His-Tag purification resin (Roche, Mannheim, Germany) for 5 hours at 4° C. The resin was washed with Ni-wash buffer (50 mM Na2HPO4, 300 mM NaCl, 20 mM Imidazole, 0.05% Tween-20) and eluted with Ni-elution buffer (50 mM Na2HPO4, 300 mM NaCl, 250 mM Imidazole, 0.05% Tween-20). The elution was then incubated with tobacco etch virus protease overnight at 4° C. The following day the elution was incubated with the γ-phosphate ATP sepharose resin for 30 minutes at 4° C. Next the resin was washed with ATP-wash buffer (50 mMTris-HCl, 60 mM MgCl2, 60 mM KCl, 10 mM Citrate) supplemented with 1 mM DTT and then ATP-wash buffer supplemented with 2 mM ATP was added to the resin to elute the protein. The final elutions were concentrated in Amicon Ultra-15 Centrifugal Filter Units (EMD Millipore, Billerica, Mass.) and buffer exchanged into 25 mM HEPES, 5 mM MgCl2, 10 mM KCl (pH 7.5) and stored at −80° C. until use.
Thermofluor Assay: SYPRO orange (Molecular Probes, Eugene, Oreg.) was diluted 1:1000 in 25 mM HEPES, 5 mM MgCl2, 10 mM KCl (pH 7.5) and purified Hsp70i, Hsc70, Hsp70i C306, or Hsp90, was then added to a final dilution of 0.04 mg/ml. Where indicated 0.001% or 0.01% Triton X-100 (Sigma) was also added. The indicated compound or DMSO was then added at the specified concentration and each sample was added as 5 replicates to a 384 well plate (BioRad, Hercules, Calif.). A melt curve protocol (25° C. to 90° C., increasing 0.5° C. and a plate reading every 30 seconds) was run on a CFX384 Touch™ Real-Time PCR Detection System (BioRad). To determine the midpoint of the protein unfolding transition or Tm, GraphPad Prisim4 (La Jolla, Calif.) was used to normalize the melt curve and to calculate the first derivate of the melt curve, with the steepest point of the slope being the Tm.

[5] = target: Hsp70 (Homo sapiens, UniProt P0DMV8); assay: Single turnover ATPase assay; format: biochemical; conditions: presence or absence of co-chaperone Hlj1
Hsp70 (Homo sapiens, UniProt P0DMV8), sequence (P0DMV8 whole entry): as the sequence (P0DMV8 whole entry, the tested form may be a part) above
Experimental: ATPase Assay: Single turnover assays were performed as previously described [Fewell et al. (2004). Small molecule modulators of endogenous and co-chaperone-stimulated Hsp70 ATPase activity. The Journal of biological chemistry 279, 51131-51140]. Briefly, Hsp70 was incubated with ^32P-ATP and cold ATP in single turnover buffer (1M KCl, 250 mM HEPES, 110 mM MgOAc) for 30 minutes on ice. ^32P-ATP-Hsp70 complex was purified from a Nick Column-Sephadex G-50 (Amersham, Piscataway, N.J.). Glycerol was added and the complexes were stored at −80° C. To determine ATP hydrolysis, a sample was thawed and added to single turnover buffer containing Hlj1 and compound added after 60 seconds. At the specified time points an aliquot of the reaction is removed, added to stop solution (2M LiCl, 4M formic acid, 36 mM ATP) and spotted on a TLC plate. The percentage of ATP hydrolyzed to ADP and P, was then calculated.

Structure (SMILES): CCCn1c(NC(=O)[C@H]2CCCN(c3cnccn3)C2)nc2ccccc21 [HS-72, (S)—N-(1-propyl-1H-benzo[d]imidazol-2-yl)-1-(pyrazin-2-yl)piperidine-3-carboxamide]
- increase of HttQ-GFP in the insoluble associated pellet fraction [1]: 50%
- elution of Hsp70 from ATP resin [2]: elutes Hsp70
- tolerability in dose escalation [3]: no adverse events, reduction in body weight, or altered behavior
- decrease of ATP bound Hsp70i Tm ([4]; 10 uM): 0.5 °C
- decrease of the Tm of Hsp70i ([4]; 10 uM): 0.1 °C
- decrease of ATP bound Hsp70i Tm ([4]; 100 uM): 1 °C
- decrease of the Tm of Hsp70i ([4]; 100 uM): 0.5 °C
- Tm of Hsp70 with compound alone vs. compound plus detergent ([4]; 100 uM, 0.001% or 0.01% Triton): no difference
- effect on Hsp70i Tm in combination with PES ([4]; absence or presence of ATP): no synergistic or additive effect
- effect on Hsp70i Tm in combination with VER ([4]; absence or presence of ATP): no observed synergistic or additive effect
- effect on Tm of Hsp70i ([4]; compound alone): decreased in a dose dependent manner
- effect on Tm of ADP Hsp70i ([4]; in presence of ADP): does not change
- effect on Hsp70 ATPase activity [5]: does not reduce
